The source of these data is patent US6994986B2, “In vitro synthesis of polypeptides by optimizing amino acid metabolism” (The Board of Trustees of the Leland Stanford University, priority 1999, dated 2006).

One test concerns the target acetate kinase (Escherichia coli, UniProt P0A6A3). To be noted: read-out: Km value of acetate kinase for acetyl phosphate; cited from earlier work.
Test [1] relates to E. coli S30 extract. Nature of the test: Cell-free protein synthesis, PEP system (phosphoenol pyruvate / pyruvate kinase ATP regeneration). The class given is biochemical, Escherichia coli. As for the experimental part: (§1) Throughout the examples to follow, two standard methods were used for cell-free protein synthesis. The first uses phosphoenol pyruvate (PEP) and pyruvate kinase to regenerate ATP from ADP. This is termed the PEP system. The second uses pyruvate and pyruvate oxidase to regenerate ATP. This is called the pyruvate system.
57 mM Hepes-KOH (pH 8.2), 1.2 mM ATP, 0.85 mM each of GTP, UTP and CTP, 1 mM DTT, 0.64 mM cAMP, 200 mM potassium glutamate, 80 mM NH4(OAc), 15 mM Mg(OAc)2, […] folinic acid, 6.7 μg/ml plasmid, 33 μg/ml T7 RNA polymerase, 500 μM each of 20 unlabeled amino acids, [^3H] leucine (0.27 GBq/mmol), 2% PEG 8000, 20 mM PEP (phosphoenol pyruvate), and 0.24 volumes of S30 extract. […]
(§2) Reactions were conducted for given time periods in a water bath set at 37° C. The amount of synthesized protein was estimated from the measured cold TCA-insoluble radioactivities as described (Kim et al., supra.) Radioactivities of samples were measured in a liquid scintillation counter (Beckman). […]
(§3) The amount of synthesized protein was estimated from the measured TCA-insoluble radioactivities as described earlier (Kim et al., 1996a, supra.) Radioactivities of samples were measured in a liquid scintillation counter (Beckman LS3801). […]

The target of test [2] is T1, phosphoenol pyruvate synthetase (pps) (Escherichia coli, UniProt P23538).
T1 construct: endogenous in cells; host or cells: E. coli K12 strain A19, S30 cell extract
T1 sequence (P23538 whole entry): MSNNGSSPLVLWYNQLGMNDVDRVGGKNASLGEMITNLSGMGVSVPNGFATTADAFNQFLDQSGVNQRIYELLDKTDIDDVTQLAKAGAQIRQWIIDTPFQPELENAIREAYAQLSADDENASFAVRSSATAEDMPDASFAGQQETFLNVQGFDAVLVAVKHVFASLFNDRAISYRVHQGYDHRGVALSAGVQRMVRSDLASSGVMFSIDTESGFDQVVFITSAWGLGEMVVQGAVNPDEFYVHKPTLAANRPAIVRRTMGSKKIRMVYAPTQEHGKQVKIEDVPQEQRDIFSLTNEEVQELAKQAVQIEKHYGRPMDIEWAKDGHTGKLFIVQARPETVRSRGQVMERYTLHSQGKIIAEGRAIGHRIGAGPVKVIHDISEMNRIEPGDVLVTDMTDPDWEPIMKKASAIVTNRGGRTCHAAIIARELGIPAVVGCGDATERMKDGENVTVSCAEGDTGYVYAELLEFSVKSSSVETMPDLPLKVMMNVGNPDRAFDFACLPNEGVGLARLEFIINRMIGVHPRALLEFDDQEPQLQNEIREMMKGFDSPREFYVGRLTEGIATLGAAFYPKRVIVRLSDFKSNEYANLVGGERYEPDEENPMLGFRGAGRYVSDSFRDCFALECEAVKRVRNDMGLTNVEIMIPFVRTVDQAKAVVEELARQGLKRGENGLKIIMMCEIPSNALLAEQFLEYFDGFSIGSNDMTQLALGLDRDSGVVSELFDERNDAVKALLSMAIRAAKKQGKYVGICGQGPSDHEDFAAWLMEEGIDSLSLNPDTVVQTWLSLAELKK
The experiment in a line: Aspartic acid/asparagine formation in the cell-free reaction mixture. The format is biochemical, E. coli. To be noted: 2.7 mM oxalic acid; FIG. 6. Here is the method:
(§4) The observations indicated in the previous examples prompted the measurement of individual amino acid concentrations during the course of a protein synthesis reaction. In this case, a pyruvate-driven reaction of 900 μl was started. Samples of 100 μl were taken each hour, diluted 1:1 with cold water and deproteinized by adding 200 μl of cold 10% TCA (trichloroacetic acid) solution. After centrifugation the supernatant was analyzed using a Beckman 1600 amino acid analyzer. […] This is a potentially serious source of reaction inefficiency. In the second case, the depletion of the three amino acids is most likely the reason that prolonging the reaction required amino acids addition.
The conversion of pyruvate to PEP is catalyzed by the enzyme, phosphoenol pyruvate synthetase (pps). Oxalic acid has been reported to inhibit pps. To test to see if the pps reaction is indeed responsible for aspartic acid and asparagine synthesis and to test if these reactions are reducing the protein yield, 2.7 mM oxalic acid was added to both the pyruvate system and the PEP system. […] With the pyruvate system, less pyruvate and ATP are being lost to amino acid formation. In the case with PEP as the energy source, pyruvate is the direct product after PEP transfers its phosphate to ADP. That pyruvate will then be converted back into PEP by pps, but at the cost of two ATP's for each new PEP molecule. […]

Test [3] concerns E. coli S30 extract. Nature of the test: Cell-free protein synthesis, pyruvate system (pyruvate / pyruvate oxidase ATP regeneration). The class given is biochemical, Escherichia coli. Here is the method:
as §1
T7 RNA polymerase was prepared from the culture of E. coli strain BL21 (pAR1219) according to the slightly modified procedures of Davanloo et al. (1984) Proc. Natl. Acad. Sci. U.S.A. 81: 2035–2039. S30 extract was prepared from wild type E. coli K12 (strain A19) according to the procedures reported earlier (Kim et al., supra.). The standard reaction mixture for the pyruvate system is nearly identical. […]
as §2, §3

The next test deals with T2, arginine decarboxylase (Escherichia coli, UniProt P21170).
T2 construct: endogenous in cells; host or cells: E. coli K12 strain A19, S30 cell extract
T2 sequence (P21170 whole entry): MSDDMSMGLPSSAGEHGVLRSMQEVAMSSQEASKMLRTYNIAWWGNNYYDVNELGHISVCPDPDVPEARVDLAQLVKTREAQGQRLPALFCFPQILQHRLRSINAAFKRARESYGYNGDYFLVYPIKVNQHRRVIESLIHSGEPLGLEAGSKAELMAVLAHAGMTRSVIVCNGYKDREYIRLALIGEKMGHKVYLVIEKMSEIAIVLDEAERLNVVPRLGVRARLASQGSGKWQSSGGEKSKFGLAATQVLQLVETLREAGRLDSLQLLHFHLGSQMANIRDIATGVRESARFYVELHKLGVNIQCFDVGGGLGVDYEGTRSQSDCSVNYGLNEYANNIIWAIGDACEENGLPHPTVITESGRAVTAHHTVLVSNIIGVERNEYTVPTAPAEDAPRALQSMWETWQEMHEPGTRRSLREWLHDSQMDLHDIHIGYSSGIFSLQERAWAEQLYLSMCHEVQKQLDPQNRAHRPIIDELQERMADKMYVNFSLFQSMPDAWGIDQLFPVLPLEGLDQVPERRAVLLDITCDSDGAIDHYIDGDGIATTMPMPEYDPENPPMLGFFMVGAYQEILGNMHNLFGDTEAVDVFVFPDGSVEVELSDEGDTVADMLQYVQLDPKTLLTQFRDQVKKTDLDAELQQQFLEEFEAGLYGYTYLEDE
The experiment in a line: Arginine depletion in the cell-free reaction mixture (amino acid analysis). The format is biochemical, E. coli. Details: dose or concentration left out as unconfirmed. As to conditions: spermidine; FIG. 5. As for the experimental part:
as §4
The data shown in FIGS. 3 and 4 indicate that the degradation of three amino acids, arginine, cysteine and tryptophan is seriously limiting the efficiency and duration of the protein synthesis reaction. […] In the case of arginine, one possible cause is the action of arginine decarboxylase. This is the first enzyme in the pathway for the conversion of arginine to putrescine and spermidine, cationic molecules important for normal bacterial physiology. Putrescine and spermidine can also be produced from ornithine, but arginine is preferred when it is available. (See FIG. 10) Arginine decarboxylase is known to be feedback inhibited by spermidine. […]

acetate kinase, sequence (P0A6A3 whole entry): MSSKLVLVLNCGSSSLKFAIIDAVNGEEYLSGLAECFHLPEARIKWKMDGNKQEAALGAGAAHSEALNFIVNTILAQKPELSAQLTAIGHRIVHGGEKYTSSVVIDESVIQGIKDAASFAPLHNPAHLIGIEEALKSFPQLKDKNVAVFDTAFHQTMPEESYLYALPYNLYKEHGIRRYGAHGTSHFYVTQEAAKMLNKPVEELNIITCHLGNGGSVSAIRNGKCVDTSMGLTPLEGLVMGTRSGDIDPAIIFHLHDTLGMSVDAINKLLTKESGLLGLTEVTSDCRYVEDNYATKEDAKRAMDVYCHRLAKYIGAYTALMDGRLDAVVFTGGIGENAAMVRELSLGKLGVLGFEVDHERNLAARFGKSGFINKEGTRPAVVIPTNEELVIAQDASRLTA

Take `CC(=O)OP(=O)(O)O` [acetyl phosphate]: at acetate kinase, the Km – broadly, the concentration of substrate that gives half-maximal velocity – is 200 µM. The “support of protein synthesis as energy source” value in the test with E. coli S30 extract [1] (energy source in place of PEP) is on record as “as efficiently as PEP”.

As to `O=C(O)C(=O)O` [oxalic acid], the protein yield result with E. coli S30 extract [1] (2.7 mM oxalic acid, PEP system, FIG. 8) is recorded as “increases the protein yield”; with E. coli S30 extract [3] (2.7 mM oxalic acid, pyruvate system, FIG. 7), “increases the protein yield”. Also, the “formation of aspartic acid and asparagine” value in test [2] is given as “reduced”.

Consider `NCCCCNCCCN` [spermidine], for which the arginine depletion entry at arginine decarboxylase is “significantly slow arginine depletion”.

catalase: in the test with E. coli S30 extract [3] (exogenous catalase added to the reaction mixture), the “effect on rate or duration of protein synthesis” value is “did not affect either the rate or duration of protein synthesis”.
